Measurements from US5891847A, “Treatment of degenerative eye disorders” (Ramot University Authority for Applied Research and …, priority 1992, dated 1999).

Tested on: RCS rats
Experiment: Retinal degeneration in RCS rats: histological and morphometric analysis of the retina after daily intramuscular injections
Type: in vivo, rat
From the text: Royal College Surgeons (RCS) rats were used. In RCS rats, a progressive loss of photoreceptor cells, caused by a recessively autosomal mutation of the RPE (La Vail, 1981), leads to severe visual impairment. Due to the failure of pigment epithelium phagocytosis, rod outer segment material accumulates between the retina and the RPE and results in retinal degeneration. […] The age of the animals in the experiment will hereinafter be referred to in relation with the postnatal day which will be indicated as pn, wherein n=the postnatal day. This disorder is similar to age-related macular degeneration in humans in that a metabolic insufficiency of the RPE cells results in a secondary progressive photoreceptor loss and vision impairment.
Enucleated eyes removed from the orbit eyes were fixated for plastic embedding in epoxy resin (Faktorovitch 1990; La Vail, 1981). The eyes were sectioned parallel to the vertical meridian.
The histological sections which were analyzed originated from the posterior part of the eye, from ora serata to ora serata including the optic nerve. Each histological preparation was analyzed by computerized image analysis. Twelve measurements (six from each side of the optic nerve) were taken at pre-determined points. At each point the number of rows of photoreceptors in the outer nuclear layer (ONL), as well as the thickness of inner plexiform layer (IPL) were determined.
The RCS rats of the experiment were divided into three groups of rats, each group including eight rats (8 eyes). The three groups were as follows:
1. RCS rats at the age of p23 receiving no treatment.
2. RCS rats at the age of p38 receiving no treatment.
3. RCS rats at the age of p23 receiving daily intramuscular injections to the hind leg containing α-MSH analog which was prepared as described above. Each rat received 0.01 micrograms of the α-MSH analog in 0.2 ml PBS in each injection.
The rats were sacrificed at the age of p38, the eyes were enucleated and then subjected to fixation and histological sections were prepared, as described above. The histological preparations of the eyes were examined morphometrically as described above and, in addition, the retinas were also examined by light microscopy.
The effect of α-MSH analog treatment on the retinas of the rats was quantitated by measuring the two following parameters at 11 or 14 points in the retina at various distances from the optic nerve:
An experiment similar to the one described above was also carried out in which the α-MSH analog treatment of Group 3 rats was replaced by α-MSH treatment. The result of this experiment, not shown were similar to the results of the above described experiment.

[1] = RCS rats, daily i.m. injections, compared to untreated rats

Q: Which results are given for Nle^4 D-Phe^7 α-MSH [α-MSH analog]?
A: number of layers of photoreceptors in the ONL (histological preparation, FIG. 3) (RCS rat at p38, daily intramuscular injections p23 to p38, 0.01 micrograms per injection, untreated 3-4 layers): 7-8 layers; mean row number in treated higher than in non-treated (RCS rats at p38, ONL photoreceptor rows, treated vs non-treated): 60%; mean number of photoreceptor rows in ONL (FIG. 4) (RCS rats at p38, daily i.m. injections, 9 out of 11 points of measurement, non-treated 3.5±0.4, p<0.05): 5.6±0.6 rows; thickness of the inner plexiform layer (IPL) (FIG. 5) (RCS rats at p38, central sector of the retina, 1.3 mm of each side of the optic nerve, untreated 23 microns, p<0.05): 50 microns; effect on photoreceptor degeneration (in words) [1]: rescued from degeneration; effect on thickness of IPL / adjacent retinal layers (in words) [1]: significantly greater; effective dose per rat (daily intramuscular injection) (RCS rats, dose needed to obtain the same effect on photoreceptor degeneration and retinal layer thickness): 0.01-0.5 microgram; number of rows of photoreceptors in the ONL, fold higher than non-treated (points 0.8 mm and 1.7 mm away from the optic nerve, Group 3 vs Group 2, p<0.001): 2 ×
